The subject of experiment [1] is BIE cells. The experiment in a line: Ki67 immunofluorescence (cell proliferation) in BIE cells. The class given is cell-based, bovine. As to the method:
BMI-immortalized bovine lens epithelial cells (BIE cell line, produced in Roy Quinlan's Laboratory, University of Durham, UK), were seeded onto 13 mm round coverslips in 6-well tissue culture plates in 10% fetal calf serum (FCS)-supplemented tissue culture medium (Sigma-Aldrich, UK) and kept at 37° C., 5% CO2 overnight. The next morning, they were exposed to 1 μM CA4P diluted in 10% FCS-supplemented medium for 30 min, after which the cells were returned to 10% FCS-supplemented medium. After 48 h, the prevalence of Ki67 positive cells was assessed by immunofluorescence.
BIE cells on coverslips were rinsed three times in PBS, followed by a single 20 min fixation in a 1:1 mix of methanol and acetone, three rinses in PBS/0.2 g/L BSA/0.2 g/L Na Azide and a single 20 min blocking step in 10% goat serum (Sigma-Aldrich, UK) diluted in PBS/BSA/NaAzide. The cells were then exposed to primary antibody (Ki-67: mouse monoclonal, 1/100, MIB-1 (DAKO, Denmark)) for 1 h at room temperature, after which they were rinsed three times in PBS/BSA/NaAzide and exposed to secondary antibody (goat anti-mouse IgG FITC-conjugated, 1/100; DAPI, 1/1000 (Sigma-Aldrich, UK)) for 1 h at room temperature in the dark. After three last rinses in PBS/BSA/NaAzide, the cells were plated onto microscope slides (VWR International, Belgium) and examined using a Zeiss LSM 510 Meta confocal microscope and its associated software. Ki-67 positive cells were counted out of a total of between 200 and 500 cells per coverslip, for two coverslips for each of three independent repeats, and expressed as the average percentage of Ki-67 positive cells out of the total number of cells counted (as determined by DAPI staining). Significant differences between control and treated cells were assessed by Chi^2-test.

Experiment [2] deals with Phosphorylated JNK. The experiment in a line: Phosphorylated JNK level. Type of experiment: cell-based, bovine. The conditions noted are these: CA4P treatment (data not shown). As to the method: Phospho-Erk ½ levels were elevated immediately after the end of CA4P exposure in both control and treated cells and decreased 1 h after the end of CA4P exposure in both control and treated cells (FIG. 7). […] Therefore, it could be hypothesized that, in primary cells, a general stress response due to dissection will mask CA4P's effect on Erk phosphorylation. Phosphorylated p38 and JNK levels were not affected by CA4P treatment (data not shown).

Where [3] appears, read: 48 h after 30 min exposure to 1 μM CA4P.

We go through one compound from patent US20120220554A1, “Combretastatins for Prevention of Posterior Capsule Opacification” (OXIGENE, INC., priority 2010, published 2012).

With `COc1ccc(/C=C\c2cc(OC)c(OC)c(OC)c2)cc1OP(=O)(O)O` [CA4P, combretastatin A-4 phosphate], in experiment [1] (30 h after exposure (data not shown)), the nuclear morphology entry is reported as “changes in nuclear morphology, as well as multinucleated cells were detected”. Also, in experiment [1] (setting [3]), the “Ki67 negative (%)” value is recorded as 85.1 ± 5.7% and the “Ki67 positive (%)” value was found to be 14.9 ± 5.7%. Further, the cell loss entry in experiment [1] (by 48 h after exposure) is reported as “cell loss is extensive”. The “Phosphorylated JNK levels” value in experiment [2] is given as “not affected”.
